System: A375 human melanoma xenografts
Experiment: In vivo therapeutic efficacy in A375 human melanoma xenografts (tumor volume, T/C, TGI), Example 14
Design: species or system human tumor in female BALB/c nude mice
Settings: for Tumor volume: mean ± SEM; for T/C / TGI: PG-D21
Method: Agents were tested in the A375 human melanoma xenografts. Compound 26 and Compound 141 were administered to BALB/c nude mice bearing A375 tumors from PG-DO and dosed via PO twice a day (BID) or third a day (TIP) or dosed P daily (QD) from PG-D. Dabrafenib was administered to BALB/c nude mice bearing A375 tumors from PG-D1 and dosed via P daily (QD). Compound 26 was dosed at 1.5 mg/kg (QD), 2 mg/kg (TID), 3 mg/kg (BID), 6 mg/kg (QD) and 10 mg/kg (BID) for 21 days. Compound 141 was dosed at 0.75 mg/kg (BID), 1 mg/kg (TID), 1.5 mg/kg (BID), 3 mg/kg (QD) and 5 mg/kg (BID) for 21 days. Dabrafenib was dosed at 100 mg/kg for 21 days. This study was non-GLP.
One hundred and thirty-eight female BALB/c nude Mus Musculus mice procured from Shanghai Lingchang Biological Science and Technology Co., LTD between the ages of six to eight weeks and with body weight between eighteen and twenty-two grams were used for the study. A spare mouse was also procured.
The A375 tumor cells were maintained in vitro in DMEM medium supplemented with 10% fetal bovine serum and 1% Penicillin-Streptomycin at 37° C. in an atmosphere of 5% CO2 in air. The tumor cells were routinely sub-cultured twice weekly. The cells growing in an exponential growth phase were harvested and counted for tumor inoculation.
Each mouse was inoculated subcutaneously at the right flank with A375 cells (5×10^6) in 0.2 mL of PBS supplemented with Matrigel (PBS: Matrigel=1:1) for tumor development. Animals were grouped for efficacy study on day 15 after tumor inoculation when the average tumor volume reached 220 mm^3. The test articles administration and the animal numbers in each group are shown in the above experimental Table 75.
At the time of routine monitoring, the animals were checked daily for any effects of tumor growth and treatments on normal behavior such as mobility, food and water consumption (by looking only), body weight gain/loss (body weights were measured twice weekly), eye/hair matting and any other abnormal effect as stated in the protocol. Death and observed clinical signs were recorded on the basis of the numbers of animals within each subset.
Prior to the onset of drug treatment, mice were measured for tumor size in two dimensions using a caliper, and the tumor volume (mm^3) was calculated using formula V=0.5 a×b^2 where a and b are the long and short diameters of the tumor in mm, respectively. Mice were randomized into different treatment groups based on the tumor volume.
The major endpoint was to see if the tumor growth could be delayed or mice could be cured. The tumor size was then used for calculations of T/C value. The T/C value (in percent) is an indication of antitumor effectiveness; T and C are the mean volumes of the treated and control groups, respectively on specified day.
TGI was calculated for each group using the formula: TGI (%)=[1−(Ti−T0)/(Ci−C0)]×100; Ti is the average tumor volume of a treatment group on a given day, T0 is the average tumor volume of the treatment group on the day of treatment start, Ci is the average tumor volume of the vehicle control group on the same day with Ti, and C0 is the average tumor volume of the vehicle group on the day of treatment start.
A one-way ANOVA followed by Dunnett's multiple comparison test was performed to compare tumor volume among vehicle group (Group 1) and treatment groups (Group 2-Group 12). All data were analyzed using GraphPad Prism, ns indicates p>0.05, * indicates p<0.05, ** indicates p<0.01, *** indicates p<0.001 and **** indicates p<0.0001.
Tumor growth inhibition of Compound 26, Compound 141 and dabrafenib in the treatment of female BALB/c nude mice bearing A375 xenografts was calculated based on tumor volume measured on […]. TGI and T/C were calculated respectively and the data are detailed in Table 82.

## CCN(C)S(=O)(=O)Nc1ccc(F)c(Oc2ccc3ncn(C4CC5(CCN(C6CC7(C6)CN(c6cc8c(cc6F)c(N6CCC(=O)NC6=O)nn8C)C7)CC5)C4)c(=O)c3c2)c1C#N (centres unmarked) [Compound 141, 6-[2-cyano-3-[[ethyl(methyl)sulfamoyl]amino]-6-fluoro-phenoxy]-3-[7-[2-[3-(2,4-dioxohexahydropyrimidin-1-yl)-5-fluoro-1-methyl-indazol-6-yl]-2-azaspiro[3.3]heptan-6-yl]-7-azaspiro[3.5]nonan-2-yl]-4-oxo-quinazoline]
0.75 mg/kg p.o. BID x 21 days, day 0
  Tumor volume: 220 ± 16 mm^3
0.75 mg/kg p.o. BID x 21 days, day 4
  Tumor volume: 279 ± 20 mm^3
0.75 mg/kg p.o. BID x 21 days, day 7
  Tumor volume: 299 ± 25 mm^3
0.75 mg/kg p.o. BID x 21 days, day 11
  Tumor volume: 305 ± 27 mm^3
0.75 mg/kg p.o. BID x 21 days, day 14
  Tumor volume: 333 ± 29 mm^3
0.75 mg/kg p.o. BID x 21 days, day 18
  Tumor volume: 465 ± 48 mm^3
0.75 mg/kg p.o. BID x 21 days, day 21
  Tumor volume: 634 ± 67 mm^3
0.75 mg/kg p.o. BID x 21 days, day 25 (dosing-free regrowth)
  Tumor volume: 1230 ± 98 mm^3
0.75 mg/kg p.o. BID x 21 days, day 28 (dosing-free regrowth)
  Tumor volume: 1536 ± 103 mm^3
0.75 mg/kg p.o. BID x 21 days, day 32 (dosing-free regrowth)
  Tumor volume: 1821 ± 140 mm^3
0.75 mg/kg p.o. BID x 21 days, day 35 (dosing-free regrowth)
  Tumor volume: 2230 ± 178 mm^3
0.75 mg/kg p.o. BID x 21 days, day 39 (dosing-free regrowth)
  Tumor volume: 2413 ± 86 mm^3
0.75 mg/kg p.o. BID x 21 days, day 42 (dosing-free regrowth)
  Tumor volume: 2786 ± 127 mm^3
0.75 mg/kg p.o. BID x 21 days, day 46 (dosing-free regrowth)
  Tumor volume: 3213 ± 101 mm^3
0.75 mg/kg p.o. BID × 21 days
  Tumor Size on PG-D21 (Mean ± SEM): 634 ± 67 mm^3
  T/C: 33.7%
  TGI: 75.1%
1 mg/kg p.o. TID x 21 days, day 0
  Tumor volume: 220 ± 16 mm^3
1 mg/kg p.o. TID x 21 days, day 4
  Tumor volume: 199 ± 14 mm^3
1 mg/kg p.o. TID x 21 days, day 7
  Tumor volume: 174 ± 12 mm^3
1 mg/kg p.o. TID x 21 days, day 11
  Tumor volume: 131 ± 11 mm^3
1 mg/kg p.o. TID x 21 days, day 14
  Tumor volume: 99 ± 11 mm^3
1 mg/kg p.o. TID x 21 days, day 18
  Tumor volume: 117 ± 18 mm^3
1 mg/kg p.o. TID x 21 days, day 21
  Tumor volume: 138 ± 22 mm^3
1 mg/kg p.o. TID x 21 days, day 25 (dosing-free regrowth)
  Tumor volume: 303 ± 94 mm^3
1 mg/kg p.o. TID x 21 days, day 28 (dosing-free regrowth)
  Tumor volume: 492 ± 132 mm^3
1 mg/kg p.o. TID x 21 days, day 32 (dosing-free regrowth)
  Tumor volume: 718 ± 197 mm^3
1 mg/kg p.o. TID x 21 days, day 35 (dosing-free regrowth)
  Tumor volume: 933 ± 232 mm^3
1 mg/kg p.o. TID x 21 days, day 39 (dosing-free regrowth)
  Tumor volume: 1233 ± 240 mm^3
1 mg/kg p.o. TID x 21 days, day 42 (dosing-free regrowth)
  Tumor volume: 1591 ± 302 mm^3
1 mg/kg p.o. TID x 21 days, day 46 (dosing-free regrowth)
  Tumor volume: 2017 ± 443 mm^3
1 mg/kg p.o. TID x 21 days, day 49 (dosing-free regrowth)
  Tumor volume: 2117 ± 505 mm^3
1 mg/kg p.o. TID x 21 days, day 53 (dosing-free regrowth)
  Tumor volume: 2166 ± 495 mm^3
1 mg/kg p.o. TID x 21 days, day 56 (dosing-free regrowth)
  Tumor volume: 2162 ± 633 mm^3
1 mg/kg p.o. TID × 21 days
  Tumor Size on PG-D21 (Mean ± SEM): 138 ± 22 mm^3
  T/C: 7.3%
  TGI: 104.9%
1.5 mg/kg p.o. BID x 21 days, day 0
  Tumor volume: 220 ± 15 mm^3
1.5 mg/kg p.o. BID x 21 days, day 4
  Tumor volume: 245 ± 18 mm^3
1.5 mg/kg p.o. BID x 21 days, day 7
  Tumor volume: 213 ± 17 mm^3
1.5 mg/kg p.o. BID x 21 days, day 11
  Tumor volume: 180 ± 13 mm^3
1.5 mg/kg p.o. BID x 21 days, day 14
  Tumor volume: 159 ± 13 mm^3
1.5 mg/kg p.o. BID x 21 days, day 18
  Tumor volume: 166 ± 14 mm^3
1.5 mg/kg p.o. BID x 21 days, day 21
  Tumor volume: 208 ± 21 mm^3
1.5 mg/kg p.o. BID x 21 days, day 25 (dosing-free regrowth)
  Tumor volume: 476 ± 63 mm^3
1.5 mg/kg p.o. BID x 21 days, day 28 (dosing-free regrowth)
  Tumor volume: 773 ± 76 mm^3
1.5 mg/kg p.o. BID x 21 days, day 32 (dosing-free regrowth)
  Tumor volume: 946 ± 93 mm^3

— patent publication US20260297060A1, “COMPOUNDS FOR THE DEGRADATION OF MUTANT BRAF” (C4 THERAPEUTICS, INC., priority 2023, published 2026)
